Data on 16 compounds can be found in ChEMBL document CHEMBL1275266, “Synthesis, cytotoxic activities and DNA binding properties of β-carboline derivatives” (Eur J Med Chem, 2010).

The subject of one assay is A-375. Nature of the assay: Cytotoxicity against human A375 cells by MTT assay. The format is functional, cell-based.
Another assay relates to CWR22R. Nature of the assay: Cytotoxicity against human 22Rv1 cells by MTT assay. It counts as functional, cell-based.
The subject of a further assay is OS-RC-2. Description: Cytotoxicity against human OS-RC2 cells by MTT assay. It counts as functional, cell-based.
A further assay has as its system KB. Nature of the assay: Cytotoxicity against human KB cells by MTT assay. The format is functional, cell-based.
The next assay has as its system 769-P. Nature of the assay: Cytotoxicity against human 769-P cells by MTT assay. It counts as functional, cell-based.
The subject of the next assay is 786-0. Nature of the assay: Cytotoxicity against human 786-0 cells by MTT assay. It counts as functional, cell-based.
For the next assay, the system named is BGC-823. Description: Cytotoxicity against human BGC823 cells by MTT assay. The format is functional, cell-based.
Another assay has as its system HepG2. Nature of the assay: Cytotoxicity against human HepG2 cells by MTT assay. The format is functional, cell-based.
The subject of a further assay is MCF7. Nature of the assay: Cytotoxicity against human MCF7 cells by MTT assay. The format is functional, cell-based.
The subject of a further assay is HT-29. Description: Cytotoxicity against human HT-29 cells by MTT assay. It counts as functional, cell-based.
The subject of assay [1] is Calf thymus DNA. Nature of the assay: Binding affinity to calf thymus DNA assessed as change in melting temperature at 20 uM by thermal denaturation assay. Conditions: Bos taurus. The format is nucleic-acid assay.
Assay [2] has as its system Calf thymus DNA. Description: Binding affinity to calf thymus DNA at 10 uM by fluorescence spectroscopy. It counts as nucleic-acid assay. Conditions: Bos taurus.
Assay [3] deals with Calf thymus DNA. Nature of the assay: Binding affinity to calf thymus DNA at 20 uM by UV spectroscopy. It counts as nucleic-acid assay. The following applies: Bos taurus.

pIC50: −log10 of the molar value. Activity calls are given as the source filed them. No cut-off for these calls is given here. Where only a bound is given, the exact number is not on record here.

For `CCCCn1c2ccccc2c2cc(CNCCN(CC)CC)nc(-c3cc(OC)c(OC)c(OC)c3)c21`, the negative logarithm of the IC50 (pIC50) in the assay with A-375 is 4.84; with CWR22R, 5.05; in the assay on OS-RC-2, 4.34; with KB it was 4.35; in the assay with 769-P, 4.84; with 786-0, 4.86. Besides, the pIC50 with BGC-823 was 4.86; with HepG2, 4.73; with MCF7, less than 4.30; in the assay on HT-29, less than 4.30.

As to `CCN(CC)CCCCNCc1cc2c3ccccc3n(CCCc3ccccc3)c2c(-c2cc(OC)c(OC)c(OC)c2)n1`, the pIC50 in the assay on A-375 is 5.43; in the assay with CWR22R it was 5.20; in the assay with OS-RC-2, 5.06; in the assay with KB, 5.16; with 769-P, 5.41; in the assay with 786-0, 5.26. Further, the negative-log IC50 (pIC50) with BGC-823 is 5.21; in the assay on HepG2, 5.68; in the assay with MCF7, 5.28; in the assay with HT-29 it was 5.12.

Regarding `COc1cc(-c2nc(CNCCCN(C)C)cc3c4ccccc4n(CCCc4ccccc4)c23)cc(OC)c1OC`, the pIC50 was 5.43 in the assay with A-375; 5.00 in the assay with CWR22R; 5.03 with OS-RC-2; 5.36 in the assay on KB; 4.98 in the assay with 769-P; 5.22 in the assay on 786-0. Also, the pIC50 with BGC-823 was 5.07; in the assay with HepG2, 5.41; with MCF7 it was 5.17; with HT-29, 5.10.

On to `CC(=O)O[C@H]1C(=O)[C@@]2(C)[C@H]([C@H](OC(=O)c3ccccc3)[C@]3(O)C[C@H](OC(=O)[C@H](O)[C@@H](NC(=O)c4ccccc4)c4ccccc4)C(C)=C1C3(C)C)[C@]1(OC(C)=O)CO[C@@H]1C[C@@H]2O` [PACLITAXEL], for which the pIC50 in the assay on OS-RC-2 is greater than 7.10; in the assay on KB, 7.10; with 786-0 it was greater than 7.10; with BGC-823, 5.82; with HepG2, greater than 7.10.

`COc1cccc2c1C(=O)c1c(O)c3c(c(O)c1C2=O)C[C@@](O)(C(=O)CO)C[C@@H]3O[C@H]1C[C@H](N)[C@H](O)[C@H](C)O1`: the shift in melting temperature (ΔTm) in the assay with Calf thymus DNA [1] was 32 °C.

Consider `CCN(CC)CCNCc1cc2c3ccccc3n(CCCc3ccccc3)c2c(-c2cc(OC)c(OC)c(OC)c2)n1`, for which the pIC50 with A-375 was 4.92; in the assay on CWR22R, 4.72; with OS-RC-2 it was 5.52; in the assay with KB, 5.60; in the assay with 769-P, 5.52; in the assay on 786-0, 5.47. Moreover, the pIC50 in the assay with BGC-823 was 5.57; in the assay with HepG2, 5.42; in the assay on MCF7, 5.09; in the assay with HT-29 it was 4.96.

With `CCCCn1c2ccccc2c2cc(CNCCCN(CC)CC)nc(-c3cc(OC)c(OC)c(OC)c3)c21`, the result in the assay on Calf thymus DNA [2] and in the assay on Calf thymus DNA [3] was Active. Besides, the pIC50 in the assay with A-375 was 4.95; in the assay on CWR22R it was 5.38; in the assay with OS-RC-2 it was 4.59; in the assay on KB, 4.43; in the assay on 769-P it was 5.12; in the assay with 786-0, 5.11. Also, the negative-log IC50 (pIC50) with BGC-823 is 5.21; in the assay with HepG2 it was 5.07; in the assay with MCF7, 5.17; in the assay on HT-29 it was 4.85. In addition, the ΔTm in the assay on Calf thymus DNA [1] was determined as 14.8 °C.

For the compound `CCN(CC)CCNCc1cc2c3ccccc3n(C)c2c(-c2cc(OC)c(OC)c(OC)c2)n1`, the negative logarithm of the IC50 (pIC50) is less than 4.30 in the assay with A-375; less than 4.30 in the assay with CWR22R; less than 4.30 in the assay with OS-RC-2; less than 4.30 with KB; less than 4.30 with 769-P; 4.47 in the assay with 786-0. Further, the negative logarithm of the IC50 (pIC50) was less than 4.30 in the assay with BGC-823, 4.83 in the assay with HepG2, less than 4.30 in the assay with MCF7 and less than 4.30 in the assay on HT-29.

Take `CCN(CC)CCCNCc1cc2c3ccccc3n(C)c2c(-c2cc(OC)c(OC)c(OC)c2)n1`: the result in the assay on Calf thymus DNA [2] and in the assay with Calf thymus DNA [3] was Active. Further, the negative-log IC50 (pIC50) with A-375 is 4.32; in the assay with CWR22R, less than 4.30; in the assay on OS-RC-2, less than 4.30; with KB it was 4.54; with 769-P, 4.46; in the assay on 786-0, 4.92. The pIC50 with BGC-823 is 4.31; with HepG2 it was 5.09; with MCF7, 4.55; with HT-29, 4.37. Moreover, in the assay with Calf thymus DNA [1], the ΔTm amounted to 17.3 °C.

Consider `CCN(CC)CCCCNCc1cc2c3ccccc3n(C)c2c(-c2cc(OC)c(OC)c(OC)c2)n1`, for which the pIC50 is less than 4.30 in the assay with A-375; less than 4.30 in the assay on CWR22R; less than 4.30 with OS-RC-2; 4.37 in the assay with KB; 4.72 in the assay with 769-P; 4.68 in the assay with 786-0. Further, the pIC50 with BGC-823 is 4.33; with HepG2, 5.15; with MCF7, 4.44; in the assay with HT-29 it was less than 4.30.

As to `COc1cc(-c2nc(CNCCCN(C)C)cc3c4ccccc4n(C)c23)cc(OC)c1OC`, the pIC50 in the assay on A-375 is less than 4.30; in the assay with CWR22R, less than 4.30; with OS-RC-2, less than 4.30; in the assay on KB, less than 4.30; in the assay with 769-P, less than 4.30; with 786-0 it was 4.52. Moreover, the pIC50 in the assay with BGC-823 is less than 4.30; in the assay with HepG2, 4.81; in the assay with MCF7 it was 4.77; in the assay on HT-29, less than 4.30.

As for `CCCCn1c2ccccc2c2cc(CNCCCN(C)C)nc(-c3cc(OC)c(OC)c(OC)c3)c21`, the pIC50 in the assay on A-375 was 4.96; with CWR22R, 4.97; with OS-RC-2, 4.59; in the assay on KB, 4.47; with 769-P it was 5.14; in the assay on 786-0, 5.22. Besides, the negative-log IC50 (pIC50) with BGC-823 is 5.17; in the assay on HepG2, 5.09; in the assay on MCF7, 5.03; in the assay on HT-29, 4.95.

`CCN(CC)CCCNCc1cc2c3ccccc3n(CCCc3ccccc3)c2c(-c2cc(OC)c(OC)c(OC)c2)n1`: the result in the assay on Calf thymus DNA [2] and in the assay with Calf thymus DNA [3] was Active. Also, the pIC50 is 5.59 in the assay on A-375; 5.15 with CWR22R; 5.08 in the assay with OS-RC-2; 5.19 in the assay with KB; 5.57 in the assay on 769-P; 5.33 with 786-0. For the same compound, the pIC50 in the assay on BGC-823 is 5.23; in the assay on HepG2, 5.77; in the assay with MCF7, 5.31; in the assay on HT-29, 5.23. Besides, the ΔTm in the assay with Calf thymus DNA [1] worked out at 14.6 °C.

For `COc1cc(-c2nc(CNCCCN(C)C)cc3c2[nH]c2ccccc23)cc(OC)c1OC`, the pIC50 with A-375, in the assay with CWR22R, with OS-RC-2, with KB, in the assay on 769-P and with 786-0 was less than 4.30 in each case. The pIC50 in the assay on BGC-823 is less than 4.30; with HepG2, 4.37; with MCF7, less than 4.30; with HT-29 it was less than 4.30.

On to `CCN(CC)CCCNCc1cc2c([nH]c3ccccc32)c(-c2cc(OC)c(OC)c(OC)c2)n1`, for which the negative-log IC50 (pIC50) in the assay on A-375 is less than 4.30; with CWR22R it was less than 4.30; in the assay with OS-RC-2, 4.33; in the assay with KB it was less than 4.30; in the assay with 769-P it was less than 4.30; with 786-0 it was less than 4.30. Further, the pIC50 was less than 4.30 with BGC-823, 4.40 in the assay on HepG2, less than 4.30 in the assay with MCF7 and less than 4.30 with HT-29. In the assay with Calf thymus DNA [1], the shift in melting temperature (ΔTm) turned out to be 24.8 °C.

On to `CCCCn1c2ccccc2c2cc(CNCCCCN(CC)CC)nc(-c3cc(OC)c(OC)c(OC)c3)c21`, for which the pIC50 in the assay with A-375 is 4.96; with CWR22R, 5.07; with OS-RC-2, 4.54; in the assay with KB, 5.12; in the assay on 769-P, 4.94; in the assay with 786-0 it was 4.96. In addition, the pIC50 in the assay on BGC-823 is 4.72; in the assay on HepG2, 5.60; in the assay with MCF7, 5.28; in the assay on HT-29, 4.70.
